Results from PubChem BioAssay (NCI).
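Briefly, cells in 96-well plates were exposed to five compound concentrations for 48 h, and endpoints were estimated by linear interpolation. At the GI50, growth is halved. The concentration for full growth arrest is given as TGI.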

How the values were obtained:
Experiment in all cases: NCI tumour cell line growth inhibition, 48 h
786-0 renal = system: 786-0 renal
A498 renal = system: A498 renal
A549 NSCLC = system: A549 NSCLC
ACHN renal = system: ACHN renal
BT-549 breast = system: BT-549 breast
CAKI-1 renal = system: CAKI-1 renal
CCRF-CEM leukemia = system: CCRF-CEM leukemia
COLO 205 colon = system: COLO 205 colon
DU-145 prostate = system: DU-145 prostate
EKVX NSCLC = system: EKVX NSCLC
HCC-2998 colon = system: HCC-2998 colon
HCT-116 colon = system: HCT-116 colon
HCT-15 colon = system: HCT-15 colon
HL-60(TB) leukemia = system: HL-60(TB) leukemia
HOP-62 NSCLC = system: HOP-62 NSCLC
HOP-92 NSCLC = system: HOP-92 NSCLC
HS 578T breast = system: HS 578T breast
HT29 colon = system: HT29 colon
IGROV1 ovarian = system: IGROV1 ovarian
K-562 leukemia = system: K-562 leukemia
KM12 colon = system: KM12 colon
LOX IMVI melanoma = system: LOX IMVI melanoma
M14 melanoma = system: M14 melanoma
MALME-3M melanoma = system: MALME-3M melanoma
MCF7 breast = system: MCF7 breast
MDA-MB-231 breast = system: MDA-MB-231 breast
MDA-MB-435 = system: MDA-MB-435
MOLT-4 leukemia = system: MOLT-4 leukemia
NCI-H226 lung = system: NCI-H226 lung
NCI-H23 lung = system: NCI-H23 lung
NCI-H460 lung = system: NCI-H460 lung
NCI-H522 lung = system: NCI-H522 lung
NCI/ADR-RES ovarian = system: NCI/ADR-RES ovarian
OVCAR-3 ovarian = system: OVCAR-3 ovarian
OVCAR-4 ovarian = system: OVCAR-4 ovarian
OVCAR-5 ovarian = system: OVCAR-5 ovarian
OVCAR-8 ovarian = system: OVCAR-8 ovarian
PC-3 prostate = system: PC-3 prostate
RPMI-8226 leukemia = system: RPMI-8226 leukemia
RXF 393 renal = system: RXF 393 renal
SF-268 CNS = system: SF-268 CNS
SF-295 CNS = system: SF-295 CNS
SF-539 CNS = system: SF-539 CNS
SK-MEL-2 melanoma = system: SK-MEL-2 melanoma
SK-MEL-28 melanoma = system: SK-MEL-28 melanoma
SK-MEL-5 melanoma = system: SK-MEL-5 melanoma
SK-OV-3 ovarian = system: SK-OV-3 ovarian
SN12C renal = system: SN12C renal
SNB-19 CNS = system: SNB-19 CNS
SNB-75 CNS = system: SNB-75 CNS
SW-620 colon = system: SW-620 colon
T-47D breast = system: T-47D breast
TK-10 renal = system: TK-10 renal
U251 CNS = system: U251 CNS
UACC-257 melanoma = system: UACC-257 melanoma
UACC-62 melanoma = system: UACC-62 melanoma
UO-31 renal = system: UO-31 renal

CC1=C(C)C(=O)C(Nc2cccc(C(F)(F)F)c2)=C(Cl)C1=O
GI50 (786-0 renal): 10.6 µM | TGI (786-0 renal): 24.3 µM | GI50 (A498 renal): 13.7 µM | TGI (A498 renal): 45.2 µM | GI50 (A549 NSCLC): 13.3 µM | TGI (A549 NSCLC): > 100 µM | GI50 (ACHN renal): 1.73 µM | TGI (ACHN renal): 3.18 µM | GI50 (BT-549 breast): 8.56 µM | TGI (BT-549 breast): 22.2 µM | GI50 (CAKI-1 renal): 1.94 µM | TGI (CAKI-1 renal): 9.11 µM | GI50 (CCRF-CEM leukemia): 1.93 µM | TGI (CCRF-CEM leukemia): > 100 µM | GI50 (COLO 205 colon): 13 µM | TGI (COLO 205 colon): 29.3 µM | GI50 (DU-145 prostate): 15.6 µM | TGI (DU-145 prostate): 34.8 µM | GI50 (EKVX NSCLC): 1.49 µM | TGI (EKVX NSCLC): 3.73 µM | GI50 (HCC-2998 colon): 5.88 µM | TGI (HCC-2998 colon): 18.4 µM | GI50 (HCT-116 colon): 1.93 µM | TGI (HCT-116 colon): 3.99 µM | GI50 (HCT-15 colon): 2.2 µM | TGI (HCT-15 colon): 5.05 µM | GI50 (HL-60(TB) leukemia): 2.34 µM | TGI (HL-60(TB) leukemia): 6.54 µM | GI50 (HOP-62 NSCLC): 11.5 µM | TGI (HOP-62 NSCLC): 27.6 µM | GI50 (HOP-92 NSCLC): 1.5 µM | TGI (HOP-92 NSCLC): 3.04 µM | GI50 (HS 578T breast): 6 µM | TGI (HS 578T breast): 64.4 µM | GI50 (HT29 colon): 7.29 µM | TGI (HT29 colon): 51.8 µM | GI50 (IGROV1 ovarian): 1.42 µM | TGI (IGROV1 ovarian): 3.19 µM | GI50 (K-562 leukemia): 2.4 µM | TGI (K-562 leukemia): > 100 µM | GI50 (KM12 colon): 3.58 µM | TGI (KM12 colon): 25.7 µM | GI50 (LOX IMVI melanoma): 1.69 µM | TGI (LOX IMVI melanoma): 3.32 µM | GI50 (M14 melanoma): 9.96 µM | TGI (M14 melanoma): 32.7 µM | GI50 (MALME-3M melanoma): 1.98 µM | TGI (MALME-3M melanoma): 6.04 µM | GI50 (MCF7 breast): 1.71 µM | TGI (MCF7 breast): 3.79 µM | GI50 (MDA-MB-231 breast): 1.59 µM | TGI (MDA-MB-231 breast): 3.28 µM | GI50 (MDA-MB-435): 5.98 µM | TGI (MDA-MB-435): 19.5 µM | GI50 (MOLT-4 leukemia): 2.22 µM | TGI (MOLT-4 leukemia): > 100 µM | GI50 (NCI-H226 lung): 10.8 µM | TGI (NCI-H226 lung): 34.8 µM | GI50 (NCI-H23 lung): 6.87 µM | TGI (NCI-H23 lung): 24 µM | GI50 (NCI-H460 lung): 11.6 µM | TGI (NCI-H460 lung): 32.2 µM | GI50 (NCI-H522 lung): 2.24 µM | TGI (NCI-H522 lung): 5.66 µM | GI50 (NCI/ADR-RES ovarian): 3.16 µM | TGI (NCI/ADR-RES ovarian): 42.3 µM | GI50 (OVCAR-3 ovarian): 2.31 µM | TGI (OVCAR-3 ovarian): 5.58 µM | GI50 (OVCAR-4 ovarian): 1.58 µM | TGI (OVCAR-4 ovarian): 2.97 µM | GI50 (OVCAR-5 ovarian): 1.98 µM | TGI (OVCAR-5 ovarian): 4.13 µM | GI50 (OVCAR-8 ovarian): 2.68 µM | TGI (OVCAR-8 ovarian): 6.89 µM | GI50 (PC-3 prostate): 2.67 µM | TGI (PC-3 prostate): 12.8 µM | GI50 (RPMI-8226 leukemia): 1.32 µM | TGI (RPMI-8226 leukemia): 7.32 µM | GI50 (RXF 393 renal): 1.49 µM | TGI (RXF 393 renal): 2.85 µM | GI50 (SF-268 CNS): 4.99 µM | TGI (SF-268 CNS): 28.6 µM | GI50 (SF-295 CNS): 6.55 µM | TGI (SF-295 CNS): 24 µM | GI50 (SF-539 CNS): 2.4 µM | TGI (SF-539 CNS): 6.61 µM | GI50 (SK-MEL-2 melanoma): 8.26 µM | TGI (SK-MEL-2 melanoma): 21.7 µM | GI50 (SK-MEL-28 melanoma): 3.36 µM | TGI (SK-MEL-28 melanoma): 10.8 µM | GI50 (SK-MEL-5 melanoma): 4.14 µM | TGI (SK-MEL-5 melanoma): 15.7 µM | GI50 (SK-OV-3 ovarian): 13 µM | TGI (SK-OV-3 ovarian): 50.7 µM | GI50 (SN12C renal): 4.25 µM | TGI (SN12C renal): 23.4 µM | GI50 (SNB-19 CNS): 5.83 µM | TGI (SNB-19 CNS): 23.4 µM | GI50 (SNB-75 CNS): 1.16 µM | TGI (SNB-75 CNS): 13.6 µM | GI50 (SW-620 colon): 2.09 µM | TGI (SW-620 colon): 4.73 µM | GI50 (T-47D breast): 1.17 µM | TGI (T-47D breast): 3.6 µM | GI50 (TK-10 renal): 19 µM | TGI (TK-10 renal): 37 µM | GI50 (U251 CNS): 4.45 µM | TGI (U251 CNS): 17.9 µM | GI50 (UACC-257 melanoma): 2.61 µM | TGI (UACC-257 melanoma): 6.72 µM | GI50 (UACC-62 melanoma): 3.46 µM | TGI (UACC-62 melanoma): 16.1 µM | GI50 (UO-31 renal): 1.46 µM | TGI (UO-31 renal): 4.18 µM
